# Laboratory results taken from patent US20140038989A1, “TETRAHYDROPYRAZOLO [1,5-A] PYRIMIDINE AS ANTI-TUBERCULOSIS COMPOUNDS” (Glaxo Group Limited, priority 2011, published 2014).
# System: Mycobacterium tuberculosis H37Rv
# Test: Mycobacterium tuberculosis H37Rv Inhibition Assay (Whole Cell Assay)
# Type: cell-based
# Details: ATCC 25618 / H37Rv, H37Rv strain (ATCC25618), Middlebrook 7H9, six days at 37° C., resazurin fluorescence after 48 hours
row,Structure (SMILES),MIC
1,"Cc1ccc(CNC(=O)c2cnn3c2N[C@@H](c2ccc(C)cc2)C[C@H]3C(F)(F)F)cc1 (relative stereo) [Example 25, Cis-N-(4-methylbenzyl)-5-(p-tolyl)-7-(trifluoromethyl)-4,5,6,7-tetrahydropyrazolo[1,5-a]pyrimidine-3-carboxamide]",≤ 1 µM
2,"CCc1ccc([C@H]2C[C@@H](C)n3ncc(C(=O)NCc4ccc(OC)cc4)c3N2)cc1 (relative stereo) [Example 23, Cis-5-(4-ethylphenyl)-7-methyl-N-{[4-(methyloxy)phenyl]methyl}-4,5,6,7-tetrahydropyrazolo[1,5-a]pyrimidine-3-carboxamide]",≤ 1 µM
3,"O=C(NCc1ccc2c(c1)OCO2)c1cnn2c1N[C@@H](c1ccc(Br)cc1)C[C@H]2C(F)(F)F (relative stereo) [Example 22, Cis-N-(benzo[d][1,3]dioxol-5-ylmethyl)-5-(4-bromophenyl)-7-(trifluoromethyl)-4,5,6,7-tetrahydropyrazolo[1,5-a]pyrimidine-3-carboxamide]",≤ 1 µM
4,"CCc1ccc([C@H]2C[C@@H](C(F)(F)F)n3ncc(C(=O)NCc4ccc(Cl)nc4)c3N2)cc1 [Example 103, (5R,7S)—N-((6-chloropyridin-3-yl)methyl)-5-(4-ethylphenyl)-7-(trifluoromethyl)-4,5,6,7-tetrahydropyrazolo[1,5-a]pyrimidine-3-carboxamide]",≤ 1 µM
5,"Cc1ccc([C@H]2C[C@@H](C(F)(F)F)n3ncc(C(=O)NCC4CCCCC4)c3N2)cc1 (relative stereo) [Example 26, Cis-N-(cyclohexylmethyl)-5-(p-tolyl)-7-(trifluoromethyl)-4,5,6,7-tetrahydropyrazolo[1,5-a]pyrimidine-3-carboxamide]",1 to 2 µM
6,"CCc1ccc([C@H]2C[C@@H](C(F)F)n3ncc(C(=O)NCc4ccc(C)cc4)c3N2)cc1 (relative stereo) [Example 33, Cis-7-(difluoromethyl)-5-(4-ethylphenyl)-N-(4-methylbenzyl)-4,5,6,7-tetrahydropyrazolo[1,5-a]pyrimidine-3-carboxamide]",≤ 1 µM
7,"CCc1ccc([C@H]2C[C@@H](C(F)(F)F)n3ncc(C(=O)NCc4ccc(F)cc4F)c3N2)cc1 (relative stereo) [Example 59, Cis-N-[(2,4-difluorophenyl)methyl]-5-(4-ethylphenyl)-7-(trifluoromethyl)-4,5,6,7-tetrahydropyrazolo[1,5-a]pyrimidine-3-carboxamide]",≤ 1 µM
8,"CCc1ccc([C@H]2C[C@@H](C(F)(F)F)n3ncc(C(=O)NCc4cccc(F)c4)c3N2)cc1 (relative stereo) [Example 60, Cis-5-(4-ethylphenyl)-N-(3-fluorobenzyl)-7-(trifluoromethyl)-4,5,6,7-tetrahydropyrazolo[1,5-a]pyrimidine-3-carboxamide]",≤ 1 µM
9,"CCc1ccc(C2CC(C(F)(F)F)n3ncc(C(=O)NCc4ccc5c(c4)OCO5)c3N2)cc1 (centres unmarked) [Example 37, N-(benzo[d][1,3]dioxol-5-ylmethyl)-5-(4-ethylphenyl)-7-(trifluoromethyl)-4,5,6,7-tetrahydropyrazolo[1,5-a]pyrimidine-3-carboxamide]",≤ 1 µM
10,"CCc1ccc([C@H]2C[C@@H](C(F)(F)F)n3ncc(C(=O)NCc4ccc(C)c(F)c4)c3N2)cc1 (relative stereo) [Example 64, Cis-5-(4-ethylphenyl)-N-(3-fluoro-4-methylbenzyl)-7-(trifluoromethyl)-4,5,6,7-tetrahydropyrazolo[1,5-a]pyrimidine-3-carboxamide]",≤ 1 µM
11,"CCc1ccc([C@H]2C[C@@H](C(F)(F)F)n3ncc(C(=O)NCc4ccc(C)n4C)c3N2)cc1 (relative stereo) [Example 72, Cis-N-((1,5-dimethyl-1H-pyrrol-2-yl)methyl)-5-(4-ethylphenyl)-7-(trifluoromethyl)-4,5,6,7-tetrahydropyrazolo[1,5-a]pyrimidine-3-carboxamide]",≤ 1 µM
12,"Cc1ccc([C@H]2C[C@@H](C(F)(F)F)n3ncc(C(=O)NCc4cccc(C)c4)c3N2)cc1 (relative stereo) [Example 24, Cis-N-(3-methylbenzyl)-5-(p-tolyl)-7-(trifluoromethyl)-4,5,6,7-tetrahydropyrazolo[1,5-a]pyrimidine-3-carboxamide]",≤ 1 µM
13,"Cc1ccc(CNC(=O)c2cnn3c2N[C@@H](c2ccc(Br)cc2)C[C@H]3C(F)(F)F)cc1 (relative stereo) [Example 21, Cis-5-(4-bromophenyl)-N-(4-methylbenzyl)-7-(trifluoromethyl)-4,5,6,7-tetrahydropyrazolo[1,5-a]pyrimidine-3-carboxamide]",≤ 1 µM
14,"COc1ccc(CNC(=O)c2cnn3c2NC(c2ccc(OC)cc2)CC3C(F)(F)F)cc1 (centres unmarked) [Example 54, N-(4-methoxybenzyl)-5-(4-methoxyphenyl)-7-(trifluoromethyl)-4,5,6,7-tetrahydropyrazolo[1,5-a]pyrimidine-3-carboxamide]",> 2 µM
15,"CCc1ccc([C@H]2C[C@@H](C(F)(F)F)n3ncc(C(=O)NCc4ncc(C)cc4F)c3N2)cc1 [Example 106, (5R,7S)-5-(4-ethylphenyl)-N-((3-fluoro-5-methylpyridin-2-yl)methyl)-7-(trifluoromethyl)-4,5,6,7-tetrahydropyrazolo[1,5-a]pyrimidine-3-carboxamide]",1 to 2 µM
16,"CCc1ccc([C@H]2C[C@@H](C(F)(F)F)n3ncc(C(=O)NCc4ccc(C)c(C)c4)c3N2)cc1 (relative stereo) [Example 65, Cis-N-(3,4-dimethylbenzyl)-5-(4-ethylphenyl)-7-(trifluoromethyl)-4,5,6,7-tetrahydropyrazolo[1,5-a]pyrimidine-3-carboxamide]",≤ 1 µM
17,"CCc1ccc([C@H]2C[C@@H](C(F)(F)F)n3ncc(C(=O)NCc4ccc(C(F)(F)F)cc4)c3N2)cc1 (relative stereo) [Example 6, Cis-5-(4-ethylphenyl)-7-(trifluoromethyl)-N-(4-(trifluoromethyl)benzyl)-4,5,6,7-tetrahydropyrazolo[1,5-a]pyrimidine-3-carboxamide]",≤ 1 µM
18,"CCc1ccc([C@H]2C[C@@H](C(F)(F)F)n3ncc(C(=O)NCc4ccc(C)nc4)c3N2)cc1 (relative stereo) [Example 19, Cis-5-(4-ethylphenyl)-N-((6-methylpyridin-3-yl)methyl)-7-(trifluoromethyl)-4,5,6,7-tetrahydropyrazolo[1,5-a]pyrimidine-3-carboxamide]",1 to 2 µM
19,"CCc1ccc([C@H]2C[C@@H](C(F)(F)F)n3ncc(C(=O)NCc4ccc(F)c(F)c4)c3N2)cc1 (relative stereo) [Example 16, Cis-N-[(3,4-difluorophenyl)methyl]-5-(4-ethylphenyl)-7-(trifluoromethyl)-4,5,6,7-tetrahydropyrazolo[1,5-a]pyrimidine-3-carboxamide]",≤ 1 µM
20,"CCc1ccc([C@H]2C[C@@H](C(F)(F)F)n3ncc(C(=O)NCc4ccc(Cl)nc4)c3N2)cc1 (relative stereo) [Example 76, Cis-N-((6-chloropyridin-3-yl)methyl)-5-(4-ethylphenyl)-7-(trifluoromethyl)-4,5,6,7-tetrahydropyrazolo[1,5-a]pyrimidine-3-carboxamide]",1 to 2 µM
21,"CCc1ccc([C@H]2C[C@@H](C(F)(F)F)n3ncc(C(=O)NCc4ccc(F)c(C)n4)c3N2)cc1 [Example 105, (5R,7S)-5-(4-ethylphenyl)-N-((5-fluoro-6-methylpyridin-2-yl)methyl)-7-(trifluoromethyl)-4,5,6,7-tetrahydropyrazolo[1,5-a]pyrimidine-3-carboxamide]",≤ 1 µM
22,"CCc1ccc([C@H]2C[C@@H](C(F)(F)F)n3ncc(C(=O)NCc4ccc(OC)cc4)c3N2)cc1 (relative stereo) [Example 1, Cis-5-(4-ethylphenyl)-N-(4-methoxybenzyl)-7-(trifluoromethyl)-4,5,6,7-tetrahydropyrazolo[1,5-a]pyrimidine-3-carboxamide]",≤ 1 µM
23,"CCc1ccc([C@H]2C[C@@H](C(F)(F)F)n3ncc(C(=O)NCc4ccc(OC)nc4)c3N2)cc1 (relative stereo) [Example 74, Cis5-(4-ethylphenyl)-N-((6-methoxypyridin-3-yl)methyl)-7-(trifluoromethyl)-4,5,6,7-tetrahydropyrazolo[1,5-a]pyrimidine-3-carboxamide]",1 to 2 µM
24,"CCc1ccc([C@H]2C[C@@H](C(C)C)n3ncc(C(=O)NCc4ccc(C)cc4)c3N2)cc1 (relative stereo) [Example 66, Cis-5-(4-ethylphenyl)-7-isopropyl-N-(4-methylbenzyl)-4,5,6,7-tetrahydropyrazolo[1,5-a]pyrimidine-3-carboxamide]",≤ 1 µM
25,"COc1ccc(C2CC(C(F)(F)F)n3ncc(C(=O)NCc4ccc5c(c4)OCO5)c3N2)cc1 (centres unmarked) [Example 41, N-(benzo[d][1,3]dioxol-5-ylmethyl)-5-(4-methoxyphenyl)-7-(trifluoromethyl)-4,5,6,7-tetrahydropyrazolo[1,5-a]pyrimidine-3-carboxamide]",≤ 1 µM
26,"CCc1ccc([C@H]2C[C@@H](C(F)(F)F)n3ncc(C(=O)NCc4ccccc4F)c3N2)cc1 (relative stereo) [Example 62, Cis-5-(4-ethylphenyl)-N-(2-fluorobenzyl)-7-(trifluoromethyl)-4,5,6,7-tetrahydropyrazolo[1,5-a]pyrimidine-3-carboxamide]",≤ 1 µM
27,"CCc1ccc([C@H]2C[C@@H](C(F)(F)F)n3ncc(C(=O)NCc4ncc(F)cc4F)c3N2)cc1 [Example 101, (5R,7S)—N-((3,5-difluoropyridin-2-yl)methyl)-5-(4-ethylphenyl)-7-(trifluoromethyl)-4,5,6,7-tetrahydropyrazolo[1,5-a]pyrimidine-3-carboxamide]",≤ 1 µM
28,"CCc1ccc([C@H]2C[C@@H](C(F)(F)F)n3ncc(C(=O)NCc4ccc(OC)cc4)c3N2)cc1 (single isomer, unassigned) [Example 1a]",≤ 1 µM
29,"CCc1ccc([C@H]2C[C@@H](C(F)(F)F)n3ncc(C(=O)NCc4ccccc4Cl)c3N2)cc1 (relative stereo) [Example 73, Cis-N-(2-chlorobenzyl)-5-(4-ethylphenyl)-7-(trifluoromethyl)-4,5,6,7-tetrahydropyrazolo[1,5-a]pyrimidine-3-carboxamide]",1 to 2 µM
